Data on five compounds can be found in US9089544B2, “Composition” (Slotervaart Participaties BV, priority 2007, dated 2015).

“And” between values parts separate entries of the source, which are not always exact repeats. Identical values can stand only once.

Data set [1] in a line: Docetaxel solubility (dissolution) test of formulations A to N in 25 mL WfI. In kind it is physicochemical. The settings on record: 37° C., 720 rpm; for maximum docetaxel concentration / maximum docetaxel concentration as % of total docetaxel present: ±6 mg docetaxel. The procedure: A magnetic stirring bar and 25 mL water were added to the beaker. The solution was stirred at 720 rpm, and kept at approximately 37° C. Samples were collected at various timepoints, and filtrated using a 0.45 μm filter before they were diluted with a 1:4 v/v mixture of methanol and acetonitrile. The filtrated and diluted samples were subsequently analyzed by HPLC-UV (see table 17).

The conditions of data set [2]: human, in vivo.
Protocol: (§1) Pharmacokinetic (PK) analysis of the data generated from the above trial was performed using the NONMEM (non-linear mixed effect modelling) program (GloboMax LLC, Hanover, Md., USA) to produce a pharmacokinetic profile. This models the absorption, elimination and distribution of a drug using different compartments.
(§2) This model uses three compartments and is well described by Bruno et al. [85].
For data set [3] the following is noted: mice; cited from earlier work.
Data set [4] is described as follows: clinical. The settings on record: human, in vivo, 100 mg. The procedure: Oral ritonavir: 1 capsule with 100 mg ritonavir (Norvir®).
Ritonavir dose: 1 capsule with 100 mg ritonavir (Norvir®).
After drug administration blood samples were collected for pharmacokinetic analyses. A blank sample was taken before dosing. Blood samples were centrifuged, plasma was separated and immediately stored at −20° C. until analyses. Analysis were performed with validated HPLC methods in a GLP (Good Laboratory Practice) licensed laboratory. This concerns all pharmacokinetic studies presented here by the inventors.

For data set [5] the following is noted: cited from earlier work.
For data set [6] the following is noted: cited from earlier work. The source holds these as a separate data set.
The nature of data set [7]: Clinical phase I trial: docetaxel liquid formulation versus MODRA capsules with ritonavir (Example 5). In kind it is in vivo, human. The settings on record: 20 mg docetaxel liquid formulation, patient 306. Here is the method:
10 patients participated in an ongoing clinical phase I trial.
The final mixture was transferred to a stainless steel lyophilisation box (Gastronorm size 1/3), t-butanol and water were subsequently removed by lyophilisation (see table. 16).
Patients took the medication orally on an empty stomach in the morning with 100 mL tap water.
Patients 307, 308, 309 and 310 received liquid formulation and/or MODRA. Cycles were administered in a weekly interval.
According to institutional guidelines, for both oral and i.v. docetaxel all patients were treated with oral dexamethason. A dose of 4 mg dexamethason was given 1 hour prior to the study drugs, followed by 4 mg every 12 hours (2 times).
A blank sample was taken before dosing.
According to institutional guidelines, for both oral and i.v. docetaxel, all patients were treated with oral dexamethason. A dose of 4 mg dexamethason was given 1 hour prior to the study drugs, followed by 4 mg every 12 hours (2 times).

Data set [8] is described as follows: clinical. The settings on record: human, in vivo, po, 100 mg.
Protocol: as §1, §2
The conditions of data set [9]: cited from earlier work. This is another data set of the same source.
The conditions of data set [10]: cited from earlier work. The source holds these as a separate data set.
Where [11] appears, read: oral docetaxel 75 mg/m^2, CsA 15 mg/kg.

In the case of `CC(=O)O[C@@]12CO[C@@H]1C[C@H](O)[C@@]1(C)C(=O)[C@H](O)C3=C(C)[C@@H](OC(=O)[C@H](O)[C@@H](NC(=O)OC(C)(C)C)c4ccccc4)C[C@@](O)([C@@H](OC(=O)c4ccccc4)[C@H]21)C3(C)C` [Formulation B, docetaxel], in data set [1], the “solubility from 10 to 60 minutes” value is “comparable to formulation A”, the “time of stirring at which maximum concentration is reached” value is 0.5 min, the maximum docetaxel concentration is 32 µg/mL and the “maximum docetaxel concentration as % of total docetaxel present” value turned out to be 13%.
For orientation: AUC means concentration integrated over time. A word on the Tmax: it is the time from dosing to the highest level. As a reminder, the bioavailability is dose-corrected exposure relative to a reference, in per cent. Low readings indicate poor availability, high ones good availability. Turning to `CC(=O)O[C@@]12CO[C@@H]1C[C@H](O)[C@@]1(C)C(=O)[C@H](O)C3=C(C)[C@@H](OC(=O)[C@H](O)[C@@H](NC(=O)OC(C)(C)C)c4ccccc4)C[C@@](O)([C@@H](OC(=O)c4ccccc4)[C@H]21)C3(C)C` [docetaxel], the “volume of the central compartment, oral administration” value in data set [2] is given as approximately 60 L. Besides, in [3], the “apparent bioavailability without ritonavir” value is 4% and the “increase of AUC of oral docetaxel by coadministration with CsA” value was “ninefold”. Besides, the exposure (AUC) in “clinical [4]” (iv, AUC IV day 15) amounted to 2100 ng·h/mL. In addition, in “clinical [4]” (iv, Tmax IV day 15), the time of peak concentration (Tmax) was 48 min. The same compound came in with an AUC in “clinical [4]” (po, AUC docetaxel oral without ritonavir) of 290 ± 260 ng·h/mL. In data set [5] (setting [11]), the “apparent bioavailability of oral docetaxel with CsA” value is listed as 90% and the “increase of the systemic exposure of docetaxel with oral CsA” value is reported as 7.3 fold. Further, the “apparent bioavailability of oral docetaxel without CsA” value in data set [5] (oral docetaxel 75 mg/m^2) was 8%. The “inter- and intra-patient variabilities in the AUC of docetaxel” value in [5] (range observed after i.v. administration, oral in the same range) is 29%-53%. Besides, in data set [6] (100 mg oral docetaxel + CsA 15 mg/kg, weekly), the “docetaxel AUC” value was “about 2.3 mg·h/L”. Moreover, the overall response rate in data set [6] (weekly 100 mg oral docetaxel + CsA 15 mg/kg, breast cancer) was 50% and 52%. Further, the “increase of docetaxel AUC by second boosting dose of 100 mg ritonavir 4 hours after docetaxel” value in [7] is on record as 1.5 fold. The bioavailability in the data set “clinical [8]” was determined as 14%.
On to `CC(=O)O[C@@]12CO[C@@H]1C[C@H](O)[C@@]1(C)C(=O)[C@H](O)C3=C(C)[C@@H](OC(=O)[C@H](O)[C@@H](NC(=O)OC(C)(C)C)c4ccccc4)C[C@@](O)([C@@H](OC(=O)c4ccccc4)[C@H]21)C3(C)C` [Formulation A, docetaxel], for which, in [1], the equilibrium docetaxel concentration entry was “approximately 6 μg/mL”, the “equilibrium docetaxel concentration as % of total docetaxel present” value was approximately 2%, the “time at which equilibrium concentration is reached” value is 15 min and the “time of stirring at which maximum concentration is reached” value stood at 5 min. Further, in data set [1], the maximum docetaxel concentration entry is reported as “approximately 12 μg/mL” and the “maximum docetaxel concentration as % of total docetaxel present” value is approximately 4.7%.
Take `CC(=O)O[C@H]1C(=O)[C@@]2(C)[C@H]([C@H](OC(=O)c3ccccc3)[C@]3(O)C[C@H](OC(=O)[C@H](O)[C@@H](NC(=O)c4ccccc4)c4ccccc4)C(C)=C1C3(C)C)[C@]1(OC(C)=O)CO[C@@H]1C[C@@H]2O` [paclitaxel]: in data set [9] (60 mg/m^2 oral paclitaxel, 15 mg/kg CsA), the “apparent bioavailability of oral paclitaxel with CsA” value is on record as 47%. In addition, in data set [9] (60 mg/m^2 oral paclitaxel), the “apparent bioavailability of oral paclitaxel without CsA” value is 4%. Also, the maximum tolerated dose in data set [9] (oral paclitaxel in combination with CsA) is listed as 300 mg/m^2. For the same compound, in [10] (mdr1a P-gp knockout mice), the “increase of AUC in knockout mice compared with wild-type mice, i.v. administration” value is “twofold” and the “increase of AUC in knockout mice compared with wild-type mice, oral administration” value was “sixfold”. In data set [10] (mouse, in vivo, po), the “oral bioavailability in wild-type mice when CsA was coadministered” value was 67%; the “oral bioavailability in wild-type mice with GF120918” value is recorded as 40%; the “oral bioavailability in wild-type mice, paclitaxel alone” value was 9% and 8.5%. For the same compound, the “fraction of unchanged paclitaxel recovered from the faeces, mdr1a P-gp knockout mice” value in data set [10] (oral administration) is on record as 3%.
Consider `CC(C)c1nc(CN(C)C(=O)N[C@H](C(=O)N[C@@H](Cc2ccccc2)C[C@H](O)[C@H](Cc2ccccc2)NC(=O)OCc2cncs2)C(C)C)cs1` [ritonavir], for which the “Ritonavir Cmax Simultaneous” value in the data set “clinical [4]” (po) amounted to 200 ng/mL.
